For test [1], the target named is Beta-adrenergic receptor kinase 1 (Homo sapiens) (UniProt P25098). Briefly: Inhibition of recombinant human full-length His-tagged ADRBK1 expressed in insect cells at 2 uM using Ser/Thr 16 as substrate measured after 1 hr by Z'-LYTE assay relative to control. The note with it: Insect cell.
Test [2] addresses Eukaryotic elongation factor 2 kinase (Homo sapiens) (UniProt O00418). Briefly: Inhibition of recombinant human full-length GST-tagged EEF2K expressed in E. coli at 2 uM using Ser/Thr 24 as substrate measured after 1 hr by Z'-LYTE assay relative to control.
The target in test [3] is Fibroblast growth factor receptor 2 (Homo sapiens) (UniProt P21802). Briefly: Inhibition of recombinant human His-tagged FGFR2 (403-822 residues) expressed in baculovirus expression system at 2 uM using Tyr 04 as substrate measured after 1 hr by Z'-LYTE assay relative to control.
Test [4] relates to Fibroblast growth factor receptor 3 (Homo sapiens), P22607 [K650E]. Briefly: Inhibition of recombinant human His-tagged FGFR3 FGFR3 K650E mutant (398-806 residues) expressed in baculovirus expression system at 2 uM using Tyr 04 as substrate measured after 1 hr by Z'-LYTE assay relative to control.
Test [5] addresses Insulin-like growth factor 1 receptor (Homo sapiens) (UniProt P08069). Briefly: Inhibition of recombinant human His-tagged IGF1R (960-1397 residues) expressed in baculovirus expression system at 2 uM using Tyr 01 as substrate measured after 1 hr by Z'-LYTE assay relative to control.
For test [6], the target named is Tyrosine-protein kinase ITK/TSK (Homo sapiens) (UniProt Q08881). Briefly: Inhibition of recombinant human full-length GST-tagged ITK expressed in insect cells at 2 uM using Tyr 01 as substrate measured after 1 hr by Z'-LYTE assay relative to control. Particulars: Insect cell.
The target of test [7] is Tyrosine-protein kinase JAK1 (Homo sapiens) (UniProt P23458). Nature of the test: Inhibition of recombinant human GST-tagged JAK1 (866-1154 residues) expressed in insect cells at 2 uM using Tyr 06 as substrate measured after 1 hr by Z'-LYTE assay relative to control. The note with it: Insect cell.
Tyrosine-protein kinase JAK1 (Homo sapiens), sequence (P23458 whole entry, the tested form may be a part): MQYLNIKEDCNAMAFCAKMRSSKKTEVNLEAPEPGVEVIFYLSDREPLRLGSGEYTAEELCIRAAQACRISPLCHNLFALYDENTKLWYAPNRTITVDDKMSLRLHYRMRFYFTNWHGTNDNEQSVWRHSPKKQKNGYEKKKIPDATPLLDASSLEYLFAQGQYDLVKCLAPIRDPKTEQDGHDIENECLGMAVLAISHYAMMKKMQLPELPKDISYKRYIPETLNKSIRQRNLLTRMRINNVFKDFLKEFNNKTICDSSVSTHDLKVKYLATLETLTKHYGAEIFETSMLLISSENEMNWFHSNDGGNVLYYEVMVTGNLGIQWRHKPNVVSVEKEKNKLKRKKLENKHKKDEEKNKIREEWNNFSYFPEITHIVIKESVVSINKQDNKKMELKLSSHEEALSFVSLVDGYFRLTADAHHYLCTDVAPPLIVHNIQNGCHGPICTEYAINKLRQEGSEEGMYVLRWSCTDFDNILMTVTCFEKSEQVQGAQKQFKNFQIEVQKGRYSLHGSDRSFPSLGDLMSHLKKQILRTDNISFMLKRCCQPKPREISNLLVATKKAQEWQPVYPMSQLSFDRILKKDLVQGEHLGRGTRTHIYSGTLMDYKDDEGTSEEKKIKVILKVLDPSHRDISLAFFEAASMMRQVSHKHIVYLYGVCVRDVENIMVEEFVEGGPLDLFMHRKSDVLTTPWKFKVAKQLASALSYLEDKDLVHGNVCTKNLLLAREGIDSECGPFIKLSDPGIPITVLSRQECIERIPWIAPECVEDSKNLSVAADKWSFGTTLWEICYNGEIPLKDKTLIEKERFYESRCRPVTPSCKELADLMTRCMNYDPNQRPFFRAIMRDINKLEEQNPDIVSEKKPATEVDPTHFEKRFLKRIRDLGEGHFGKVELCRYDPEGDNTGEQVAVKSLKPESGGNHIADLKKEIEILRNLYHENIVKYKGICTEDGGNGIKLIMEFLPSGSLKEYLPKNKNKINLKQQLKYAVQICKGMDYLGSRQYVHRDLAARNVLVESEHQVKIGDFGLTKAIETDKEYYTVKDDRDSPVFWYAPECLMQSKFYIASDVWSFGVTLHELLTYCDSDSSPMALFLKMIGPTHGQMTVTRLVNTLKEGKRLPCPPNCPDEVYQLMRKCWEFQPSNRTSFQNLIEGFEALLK
For test [8], the target named is Mast/stem cell growth factor receptor Kit (Homo sapiens) (UniProt P10721). Briefly: Inhibition of recombinant human His-tagged KIT (544-976 residues) expressed in insect cells at 2 uM using […] as substrate measured after 1 hr by Z'-LYTE assay relative to control.
Mast/stem cell growth factor receptor Kit (Homo sapiens), sequence (P10721 whole entry, the tested form may be a part): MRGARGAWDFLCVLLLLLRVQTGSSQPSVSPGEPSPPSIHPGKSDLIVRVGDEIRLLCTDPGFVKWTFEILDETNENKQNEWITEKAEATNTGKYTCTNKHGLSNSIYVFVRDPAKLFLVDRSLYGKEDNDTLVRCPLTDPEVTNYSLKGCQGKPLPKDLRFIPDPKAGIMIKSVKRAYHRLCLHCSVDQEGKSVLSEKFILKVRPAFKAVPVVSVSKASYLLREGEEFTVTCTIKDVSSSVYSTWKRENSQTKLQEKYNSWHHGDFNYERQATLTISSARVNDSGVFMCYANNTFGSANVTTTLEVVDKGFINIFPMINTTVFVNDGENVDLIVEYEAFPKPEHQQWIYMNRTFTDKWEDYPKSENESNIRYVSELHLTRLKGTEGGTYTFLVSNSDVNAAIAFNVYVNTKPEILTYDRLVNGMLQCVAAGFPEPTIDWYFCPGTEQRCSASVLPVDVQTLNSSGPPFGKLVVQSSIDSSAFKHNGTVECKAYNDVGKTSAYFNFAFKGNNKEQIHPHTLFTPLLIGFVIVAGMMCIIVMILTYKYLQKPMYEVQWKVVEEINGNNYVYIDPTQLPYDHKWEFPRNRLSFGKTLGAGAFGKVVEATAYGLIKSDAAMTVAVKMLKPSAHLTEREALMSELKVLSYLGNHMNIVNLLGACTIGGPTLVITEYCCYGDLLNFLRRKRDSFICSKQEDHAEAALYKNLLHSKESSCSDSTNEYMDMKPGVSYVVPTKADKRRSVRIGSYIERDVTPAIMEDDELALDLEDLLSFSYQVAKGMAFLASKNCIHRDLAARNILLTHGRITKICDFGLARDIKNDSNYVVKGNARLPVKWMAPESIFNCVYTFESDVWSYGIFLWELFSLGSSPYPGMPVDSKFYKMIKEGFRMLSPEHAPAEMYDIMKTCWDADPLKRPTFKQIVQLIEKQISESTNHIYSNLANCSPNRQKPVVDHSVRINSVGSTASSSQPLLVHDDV
Test [9] concerns Mast/stem cell growth factor receptor Kit (Homo sapiens), P10721 [T670I]. Briefly: Inhibition of recombinant human His-tagged KIT T670I mutant (544-976 residues) expressed in insect cells at 2 uM using […] as substrate measured after 1 hr by Z'-LYTE assay relative to control.
In test [10] the target is Mitogen-activated protein kinase kinase kinase kinase 2 (Homo sapiens) (UniProt Q12851). Briefly: Inhibition of recombinant human full-length His-tagged MAP4K2 expressed in insect cells at 2 uM using Ser/Thr 07 as substrate measured after 1 hr by Z'-LYTE assay relative to control. Particulars: Insect cell.
Test [11] addresses Mitogen-activated protein kinase kinase kinase kinase 4 (Homo sapiens) (UniProt O95819). Nature of the test: Inhibition of recombinant human GST-tagged MAP4K4 (1-328 residues) expressed in insect cells at 2 uM using Ser/Thr 07 as substrate measured after 1 hr by Z'-LYTE assay relative to control. The note with it: Insect cell.
Test [12] has as its target Mitogen-activated protein kinase 14 (Homo sapiens) (UniProt Q16539). Nature of the test: Inhibition of recombinant human full length GST-tagged MAPK14 expressed in E. coli at 2 uM using Ser/Thr 04 as substrate measured after 1 hr by Z'-LYTE assay relative to control.
Test [13] deals with Serine/threonine-protein kinase MARK1 (Homo sapiens) (UniProt Q9P0L2). Briefly: Inhibition of recombinant human full length GST-tagged MARK1 expressed in baculovirus expression system at 2 uM using Ser/Thr 21 as substrate measured after 1 hr by Z'-LYTE assay relative to control.
Serine/threonine-protein kinase MARK1 (Homo sapiens), sequence (Q9P0L2 whole entry, looked up): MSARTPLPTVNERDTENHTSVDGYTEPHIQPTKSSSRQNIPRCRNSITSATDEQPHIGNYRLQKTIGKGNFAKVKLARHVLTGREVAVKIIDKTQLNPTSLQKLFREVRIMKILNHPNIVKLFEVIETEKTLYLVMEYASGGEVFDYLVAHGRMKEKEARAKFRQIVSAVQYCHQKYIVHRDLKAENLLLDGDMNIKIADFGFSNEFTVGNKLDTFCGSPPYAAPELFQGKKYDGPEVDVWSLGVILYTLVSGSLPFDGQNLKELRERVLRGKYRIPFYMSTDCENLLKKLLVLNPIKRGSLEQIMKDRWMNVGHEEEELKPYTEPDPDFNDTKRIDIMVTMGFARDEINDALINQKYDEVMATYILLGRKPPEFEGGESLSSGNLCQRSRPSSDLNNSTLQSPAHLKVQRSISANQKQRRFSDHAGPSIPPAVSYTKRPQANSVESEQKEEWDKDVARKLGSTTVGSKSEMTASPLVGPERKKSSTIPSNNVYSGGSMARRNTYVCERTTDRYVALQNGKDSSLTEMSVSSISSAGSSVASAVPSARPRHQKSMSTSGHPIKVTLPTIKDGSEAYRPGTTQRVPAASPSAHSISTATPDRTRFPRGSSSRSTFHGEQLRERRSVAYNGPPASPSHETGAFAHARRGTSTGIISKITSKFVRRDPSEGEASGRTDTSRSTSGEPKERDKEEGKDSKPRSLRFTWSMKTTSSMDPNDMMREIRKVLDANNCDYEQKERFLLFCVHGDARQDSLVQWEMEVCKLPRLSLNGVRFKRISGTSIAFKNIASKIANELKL
Test [14] concerns the target Serine/threonine-protein kinase Nek4 (Homo sapiens) (UniProt P51957). Nature of the test: Inhibition of recombinant human full length GST-tagged NEK4 expressed in insect cells at 2 uM using Ser/Thr 17 as substrate measured after 1 hr by Z'-LYTE assay relative to control. The note with it: Insect cell.
Test [15] concerns the target Serine/threonine-protein kinase Nek6 (Homo sapiens) (UniProt Q9HC98). Nature of the test: Inhibition of recombinant human full length GST-tagged NEK6 expressed in insect cells at 2 uM using Ser/Thr 22 as substrate measured after 1 hr by Z'-LYTE assay relative to control. The note with it: Insect cell.
Test [16] concerns the target Serine/threonine-protein kinase PAK 5 (Homo sapiens) (UniProt Q9P286). Nature of the test: Inhibition of recombinant human His-tagged PAK7 (425-719 residues) expressed in baculovirus expression system at 2 uM using Ser/Thr 20 as substrate measured after 1 hr by Z'-LYTE assay relative to control.
Test [17] concerns Platelet-derived growth factor receptor alpha (Homo sapiens), P16234 [D842V]. Briefly: Inhibition of recombinant human GST-tagged PDGFRA D842V mutant (550-1089 residues) expressed in baculovirus expression system at 2 uM using Tyr 04 as substrate measured after 1 hr by Z'-LYTE assay relative to control.
Test [18] addresses Ribosomal protein S6 kinase alpha-6 (Homo sapiens) (UniProt Q9UK32). Briefly: Inhibition of recombinant human full length GST-tagged RPS6KA6 expressed in insect cells at 2 uM using Ser/Thr 20 as substrate measured after 1 hr by Z'-LYTE assay relative to control. Particulars: Insect cell.
In test [19] the target is SRSF protein kinase 2 (Homo sapiens) (UniProt P78362). Briefly: Inhibition of recombinant human full length GST-tagged SRPK2 expressed in insect cells at 2 uM using Ser/Thr 07 as substrate measured after 1 hr by Z'-LYTE assay relative to control. Particulars: Insect cell.
SRSF protein kinase 2 (Homo sapiens), sequence (P78362 whole entry, looked up): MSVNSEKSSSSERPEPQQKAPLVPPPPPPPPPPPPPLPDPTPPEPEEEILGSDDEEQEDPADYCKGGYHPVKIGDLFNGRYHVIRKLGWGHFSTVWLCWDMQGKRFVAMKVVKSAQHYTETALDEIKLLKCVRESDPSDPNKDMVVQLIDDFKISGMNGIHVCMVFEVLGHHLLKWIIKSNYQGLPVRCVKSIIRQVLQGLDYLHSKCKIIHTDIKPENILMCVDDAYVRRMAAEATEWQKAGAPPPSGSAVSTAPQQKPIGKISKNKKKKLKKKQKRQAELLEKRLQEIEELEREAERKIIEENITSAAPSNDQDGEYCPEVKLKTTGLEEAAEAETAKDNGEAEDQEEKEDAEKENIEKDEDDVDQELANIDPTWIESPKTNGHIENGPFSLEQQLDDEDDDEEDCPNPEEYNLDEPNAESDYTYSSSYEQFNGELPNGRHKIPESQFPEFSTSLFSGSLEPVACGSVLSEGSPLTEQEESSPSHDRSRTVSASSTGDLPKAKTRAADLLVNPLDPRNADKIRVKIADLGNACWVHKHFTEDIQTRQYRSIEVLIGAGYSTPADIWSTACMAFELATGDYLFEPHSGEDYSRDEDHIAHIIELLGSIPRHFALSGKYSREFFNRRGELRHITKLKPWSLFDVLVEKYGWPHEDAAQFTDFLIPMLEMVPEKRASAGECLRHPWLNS
The next test deals with HCT-116. Nature of the test: Antiproliferative activity against human HCT-116 cells assessed as cell growth inhibition incubated for 24 hrs by MTS assay. Type of test: functional, cell-based. Particulars: HCT-116, 24 h. A general note: Formazan colour is commonly taken as a measure of viable cells.
The subject of test [20] is MDA-MB-361. Briefly: Antitumor activity against human MDA-MB-361 cells xenografted in female nude mouse model assessed as tumor growth delay at 5 mg/kg, po qd administered as 5 days on/2 days off regimen for 4 cycles. Particulars: time 28.0 day. Type of test: functional, organism-based. A general note: A xenograft is tissue or cells of one species grown in another, often human tumour cells in immunodeficient mice.

Test [21] relates to MDA-MB-361. Briefly: Antitumor activity against human MDA-MB-361 cells xenografted in female nude mouse model assessed as suppression in P-S6K at T389 level at 50 mg/kg, po qd administered as 5 days on/2 days off regimen for 4 cycles by immunoblot analysis. Format: functional, organism-based. Particulars: time 28.0 day.
Test [22] has as its target 3-phosphoinositide-dependent protein kinase 1 (Homo sapiens) (UniProt O15530). Briefly: Inhibition of recombinant human full length His-tagged PDK1 expressed in baculovirus expression system at 2 uM using Ser/Thr 06 as substrate measured after 1 hr by Z'-LYTE assay relative to control.

Activity calls are given as the source filed them. The rule behind the calls is not given here.

Our source for the inhibition, IC50 and Activity values is ChEMBL document CHEMBL5696439 (Cancer Res, 2010).

Serine/threonine-protein kinase Nek6 (Homo sapiens), sequence (Q9HC98 whole entry, the tested form may be a part): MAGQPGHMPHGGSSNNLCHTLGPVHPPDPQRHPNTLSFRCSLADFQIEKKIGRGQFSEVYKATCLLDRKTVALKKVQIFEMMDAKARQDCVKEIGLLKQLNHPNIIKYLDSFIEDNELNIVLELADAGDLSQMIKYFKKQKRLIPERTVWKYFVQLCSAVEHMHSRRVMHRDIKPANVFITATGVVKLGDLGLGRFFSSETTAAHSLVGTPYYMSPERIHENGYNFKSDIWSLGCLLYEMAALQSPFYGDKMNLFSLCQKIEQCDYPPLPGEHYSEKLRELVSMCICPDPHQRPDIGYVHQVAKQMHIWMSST
Eukaryotic elongation factor 2 kinase (Homo sapiens), sequence (O00418 whole entry, the tested form may be a part): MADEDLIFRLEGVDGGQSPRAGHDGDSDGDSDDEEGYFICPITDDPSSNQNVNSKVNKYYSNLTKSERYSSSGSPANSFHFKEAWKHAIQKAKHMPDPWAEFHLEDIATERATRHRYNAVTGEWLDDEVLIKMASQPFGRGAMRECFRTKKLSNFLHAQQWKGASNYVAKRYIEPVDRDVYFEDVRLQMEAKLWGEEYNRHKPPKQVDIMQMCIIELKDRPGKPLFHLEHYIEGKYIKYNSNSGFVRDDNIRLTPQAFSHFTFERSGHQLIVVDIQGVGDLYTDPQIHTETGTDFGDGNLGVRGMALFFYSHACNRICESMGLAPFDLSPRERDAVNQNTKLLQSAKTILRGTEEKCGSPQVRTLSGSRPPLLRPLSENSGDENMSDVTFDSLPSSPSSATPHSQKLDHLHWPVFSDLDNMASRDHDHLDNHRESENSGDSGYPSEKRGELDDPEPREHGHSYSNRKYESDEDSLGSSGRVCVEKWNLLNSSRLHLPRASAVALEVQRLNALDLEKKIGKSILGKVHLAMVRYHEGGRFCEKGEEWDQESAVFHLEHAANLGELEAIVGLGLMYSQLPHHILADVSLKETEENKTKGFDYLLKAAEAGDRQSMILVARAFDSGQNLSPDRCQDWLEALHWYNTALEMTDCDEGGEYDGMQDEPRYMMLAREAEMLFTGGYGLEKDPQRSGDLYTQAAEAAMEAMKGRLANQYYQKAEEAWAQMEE
Mitogen-activated protein kinase 14 (Homo sapiens), sequence (Q16539 whole entry): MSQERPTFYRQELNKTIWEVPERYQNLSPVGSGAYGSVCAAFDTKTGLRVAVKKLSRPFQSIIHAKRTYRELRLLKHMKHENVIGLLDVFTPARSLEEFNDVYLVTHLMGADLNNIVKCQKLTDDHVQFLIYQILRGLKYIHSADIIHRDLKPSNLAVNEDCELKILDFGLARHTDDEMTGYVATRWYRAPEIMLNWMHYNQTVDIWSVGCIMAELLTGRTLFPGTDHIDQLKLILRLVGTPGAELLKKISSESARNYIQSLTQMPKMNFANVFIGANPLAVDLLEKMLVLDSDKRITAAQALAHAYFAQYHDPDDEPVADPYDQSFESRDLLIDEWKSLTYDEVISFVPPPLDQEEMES

As to `CNC(=O)Nc1ccc(-c2nc(N3CC4CCC(C3)O4)c3cnn(C4CCC5(CC4)OCCO5)c3n2)cc1`, the inhibition in test [1] is -1%; in [2], 1%; in test [3] it was 4%; in [4], 6%; in test [5] it was 1%; in test [6], 2%. Moreover, the inhibition in test [7] amounted to 5%; in [8], 10%; in test [9], 7%; in [10], 3%; in test [11] it was 10%; in [12] it was 11%. For the same compound, the inhibition turned out to be 13% in [13]; 7% in test [14]; 12% in test [15]; 11% in test [16]; 4% in test [17]; 12% in test [18]. Also, the inhibition is 1% in [19] and 3% in test [22]. The IC50 in the test with HCT-116 is 0.38 µM. Also, the result in the test on MDA-MB-361 [20] and in the test on MDA-MB-361 [21] was Active.

The inhibition is the relative decrease from the control value, in per cent. The term IC50 denotes the concentration that gives 50% inhibition.
